Results reported in PMC9739695, “Water-Soluble Salts Based on Benzofuroxan Derivatives—Synthesis and Biological Activity” (International Journal of Molecular Sciences, 2022).
Structures can show the parent of a compound that is named as a salt. Where two headings read alike, the source gives them in different places. One block for each compound: values may come before it.

Columns and labels:
HeLa (cervical tumor) = assay: Cell viability, MTT test; type: cell-based; conditions: Homo sapiens, test range 0.1 to 100 μM, read-out: IC50 (concentration causing 50% inhibition of cell population growth)
Description: (§1) In this work, the cytotoxic potential of the water-soluble salts based on benzofuroxan was determined by the effect of compounds on the survival of the cell tumor origin cultures (SH-SY5Y, Hep2, A549, HeLa) using the MTT test. To understand how the synthesized compounds can influence the healthy microenvironment in the body, the effect of substances on the viability of a normal Hek 293 cell culture was additionally evaluated.
(§2) Human cell cultures of tumor origin—SH-SY5Y (neuroblastoma), HeLa (cervical tumor), Hep-2 (larynx carcinoma), A549 (adenocarcinomic human alveolar basal epithelial cells)—and normal cell line Hek 293 (human embryonic kidneys), provided by the Laboratory of Tumor Cell Genetics of the Scientific Research Institute of Carcinogenesis, N.N. Blokhin National Medical Research Center of Oncology, as well as the Institute of Cytology of the Russian Academy of Sciences, were grown in a nutrient medium DMEM (PanEco, Moscow, Russia) and MEM (PanEco, Moscow, Russia), containing fetal bovine serum (10% by volume) (ThermoFisher Scientific, Paisley, UK), Glutamax (2 mM) (Gibco, Scotland, UK), and penicillin-streptomycin (1% by volume) (PanEco, Moscow, Russia). The cultivation was carried out at 37 °C in a humidified CO2 atmosphere (5%).
(§3) Cell viability was determined by MTT test. Cells were seeded in a 96-well plate in the amount of 1 × 10^4 cells/200µLof complete nutrient medium and cultured at 37 °C in CO2 (5%). After 24 h of incubation, various concentrations of test compounds in the range from 0.1 to 100 μM, were added to the cell cultures, and then the cells were cultured under the same conditions for 24 and 72 h. For each concentration, the experiment was carried out in triplicate.
(§4) All compounds were dissolved in DMSO, then diluted with the medium to the required concentration. […] The DMSO was also added to the control wells in a volume of 1%. After the incubation time, MTT (3-(4,5-dimethylthiazol-2-yl)-2,5-diphenyltetrazolium bromide, 5 mg/mL) was added to each well and plates were additionally incubated for 2 h (until the characteristic color appeared).
(§5) Using a plate analyzer (Cytation3, BioTech Instruments Inc., Winooski, VT, USA), the optical density was determined at 530 nm. The concentration value causing 50% inhibition of cell population growth (IC50) was determined from dose-dependent curves.

[1] = system: A549 (adenocarcinomic human alveolar basal epithelial cells); assay: Cell viability, MTT test; type: cell-based; conditions: test range 0.1 to 100 μM, read-out: IC50 (concentration causing 50% inhibition of cell population growth)
Description: as §1, §2, §3, §4, §5

Hep-2 (larynx carcinoma) = assay: Cell viability, MTT test; type: cell-based; conditions: Homo sapiens, HEp-2, test range 0.1 to 100 μM, read-out: IC50 (concentration causing 50% inhibition of cell population growth)
Description: as §1, §2, §3, §4, §5

SH-SY5Y (neuroblastoma) = assay: Cell viability, MTT test; type: cell-based, Human; conditions: Homo sapiens, SH-SY5Y, test range 0.1 to 100 μM, read-out: IC50 (concentration causing 50% inhibition of cell population growth)
Description: as §1, §2, §3, §4, §5

[2] = system: Hek 293 (human embryonic kidneys); assay: Cell viability, MTT test, normal cell line; type: cell-based; conditions: HEK293, Hek 293 normal cells, test range 0.1 to 100 μM, read-out: IC50 (concentration causing 50% inhibition of cell population growth)
Description: as §1, §2, §3, §4, §5

rice seeds = assay: Pre-sowing seed treatment, sowing qualities of rice seeds; type: in vivo; conditions: for germination energy: control 71.4; for laboratory germination: control 95.2
Description: (§6) When evaluating the effectiveness of treatment of wheat, alfalfa, barley, rice, and sorghum seeds as fungicidal and bactericidal agents with preparation compounds at concentrations of 10, 20, and 40 mmol, their effect on the suppression of seed infection was evaluated.
(§7) […] The sowing qualities were evaluated (germination energy for 3–4 days, laboratory germination for 7–8 days) according to GOST 12038-84 [60]. Sowing qualities of seeds were determined in wet chambers. According to the sample, 50 seeds were taken in 4-fold repetition.

sorghum seeds = assay: Pre-sowing seed treatment, sowing qualities of sorghum seeds; type: in vivo; conditions: for germination energy: control 52.3; for laboratory germination: control 57
Description: as §6, §7

barley seeds = assay: Pre-sowing seed treatment, sowing qualities of barley seeds; type: in vivo; conditions: for germination energy / laboratory germination: control 95.2
Description: as §6, §7

alfalfa seeds = assay: Pre-sowing seed treatment, sowing qualities of alfalfa seeds; type: in vivo; conditions: for germination energy / laboratory germination: control 76
Description: as §6, §7

wheat seeds = assay: Pre-sowing seed treatment, sowing qualities of wheat seeds; type: in vivo; conditions: for germination energy: control 82; for laboratory germination: control 85.7
Description: as §6, §7

[3] = system: fungal microflora (mushrooms) on alfalfa seeds; assay: Growth of fungal microflora on treated alfalfa seeds; type: cell-based
Description: During phytopathological analyses of agricultural crops, the species composition of fungal and bacterial microflora was established. Laboratory studies were carried out on two nutrient media potato-agar (ingredients: potatoes—200 g; agar-agar—20 g; distilled water—1000 mL.) and potato-dextrose agar (ingredients: potatoes—200 g;dextrose—20 g; agar-agar—20 g; distilled water—1000 mL), according to the guidelines.
When evaluating the effectiveness of treatment of wheat, alfalfa, barley, rice, and sorghum seeds as […], their effect on the suppression of seed infection was evaluated.

SMILES: CN(C)Cc1ccccc1Nc1c([N+](=O)[O-])c(Cl)cc2c1no[n+]2[O-] [3a, 6-chloro-4-(2-((dimethylamino)methyl)phenylamino)-5-nitrobenzo[c][1,2,5]oxadiazole 1-oxide]
- melting point: 152 to 153 °C (dec.)

SMILES: O=[N+]([O-])c1c(Cl)cc2c(no[n+]2[O-])c1NCCN1CCOCC1 [3d, 6-chloro-4-(2-morpholinoethylamino)-5-nitrobenzo[c][1,2,5]oxadiazole 1-oxide]
- melting point: 140 to 141 °C

SMILES: O=[N+]([O-])c1c(Cl)cc2c(no[n+]2[O-])c1NCCN1CCCCC1 [3f, 6-chloro-5-nitro-4-(2-(piperidin-1-yl)ethylamino)benzo[c][1,2,5]oxadiazole 1-oxide]
- melting point: 88 to 89 °C

SMILES: Cl.O=[N+]([O-])c1c(Cl)cc2c(no[n+]2[O-])c1NCCN1CCCCC1
- melting point: 106 to 107 °C

SMILES: CN(C)Cc1cccc(Nc2c([N+](=O)[O-])c(Cl)cc3c2no[n+]3[O-])c1 [3b, 6-chloro-4-(3-((dimethylamino)methyl)phenylamino)-5-nitrobenzo[c][1,2,5]oxadiazole 1-oxide]
- melting point: 118 to 119 °C

SMILES: CN(C)Cc1ccc(Nc2c([N+](=O)[O-])c(Cl)cc3c2no[n+]3[O-])cc1 [3c, 6-chloro-4-(4-((dimethylamino)methyl)phenylamino)-5-nitrobenzo[c][1,2,5]oxadiazole 1-oxide]
- melting point: > 300 °C (dec.)

The next lines start with results.

- melting point: 186 to 187 °C
SMILES: O=[N+]([O-])c1c(Cl)cc2c(no[n+]2[O-])c1NCCN1CCOCC1 (as salt: chloride) [4d, 6-chloro-4-(2-(morpholino-4-ium)ethylamino)-5-nitrobenzo[c][1,2,5]oxadiazole 1-oxide chloride]

- IC50 (HeLa (cervical tumor); incubation 24 h): 46.1 ± 0.56 µM
- IC50 (HeLa (cervical tumor); incubation 72 h): 38.1 ± 1.21 µM
- IC50 (Hep-2 (larynx carcinoma); Hep2, incubation 24 h): 97 ± 2.08 µM
- IC50 (Hep-2 (larynx carcinoma); Hep2, incubation 72 h): 93.1 ± 2.3 µM
- IC50 (SH-SY5Y (neuroblastoma); incubation 24 h): 45.2 ± 2.43 µM
- IC50 (SH-SY5Y (neuroblastoma); incubation 72 h): 32.1 ± 1.41 µM
SMILES: CN(C)Cc1cccc(Nc2c([N+](=O)[O-])c(Cl)cc3c2no[n+]3[O-])c1 [4b, 6-chloro-4-(3-((dimethylammonio)methyl)phenylamino)-5-nitrobenzo[c][1,2,5]oxadiazole 1-oxide chloride]
- IC50 ([1]; A549, incubation 24 h): 99.2 ± 3.38 µM
- IC50 ([1]; A549, incubation 72 h): 90 ± 2.04 µM
- IC50 ([2]; incubation 24 h): 35 ± 1.35 µM
- IC50 ([2]; incubation 72 h): 27.2 ± 2.5 µM

- IC50 (HeLa (cervical tumor); incubation 24 h): 40.2 ± 2.73 µM
- IC50 (HeLa (cervical tumor); incubation 72 h): 32.9 ± 0.56 µM
- IC50 (Hep-2 (larynx carcinoma); Hep2, incubation 24 h): 98.5 ± 2.54 µM
- IC50 (Hep-2 (larynx carcinoma); Hep2, incubation 72 h): 90.1 ± 3.1 µM
- IC50 (SH-SY5Y (neuroblastoma); incubation 24 h): 44 ± 1.09 µM
- IC50 (SH-SY5Y (neuroblastoma); incubation 72 h): 35.1 ± 3.85 µM
- melting point: 125 to 126 °C (dec.)
SMILES: CN(C)Cc1ccccc1Nc1c([N+](=O)[O-])c(Cl)cc2c1no[n+]2[O-].Cl [4a, 6-chloro-4-(2-((dimethylammonio)methyl)phenylamino)-5-nitrobenzo[c][1,2,5]oxadiazole 1-oxide chloride]
- sowing qualities of seeds compared with control (rice seeds; 10 mmol): better results than the control
- germination energy (rice seeds; 10 mmol): 96%
- laboratory germination (rice seeds; 10 mmol): 96.5%
- sowing qualities of seeds compared with control (rice seeds; 50 mmol): better results than the control
- germination energy (rice seeds; 50 mmol): 99%
- laboratory germination (rice seeds; 50 mmol): 99%
- germination energy (sorghum seeds; 10 mmol): 47.5%
- laboratory germination (sorghum seeds; 10 mmol): 49.5%
- sowing qualities of seeds compared with control (sorghum seeds; 50 mmol): at the control level
- germination energy (sorghum seeds; 50 mmol): 52.5%
- laboratory germination (sorghum seeds; 50 mmol): 56.5%
- IC50 ([1]; A549, incubation 24 h): 95.5 ± 1.01 µM
- IC50 ([1]; A549, incubation 72 h): 92.1 ± 3.58 µM
- sowing qualities of seeds compared with control (barley seeds; 10 mmol): higher than control
- germination energy (barley seeds; 10 mmol): 96%
- laboratory germination (barley seeds; 10 mmol): 99%
- sowing qualities of seeds compared with control (barley seeds; 50 mmol): higher than control
- germination energy (barley seeds; 50 mmol): 95%
- laboratory germination (barley seeds; 50 mmol): 97.5%
- IC50 ([2]; incubation 24 h): 38.62 ± 0.1 µM
- IC50 ([2]; incubation 72 h): 16.1 ± 1.86 µM
- sowing qualities of seeds compared with control (alfalfa seeds; 10 mmol): higher than controls
- germination energy (alfalfa seeds; 10 mmol): 83%
- laboratory germination (alfalfa seeds; 10 mmol): 84.5%
- sowing qualities of seeds compared with control (alfalfa seeds; 50 mmol): higher than controls
- germination energy (alfalfa seeds; 50 mmol): 78%
- laboratory germination (alfalfa seeds; 50 mmol): 79.5%
- sowing qualities of seeds compared with control (wheat seeds; 10 mmol): higher than in the case of controls
- germination energy (wheat seeds; 10 mmol): 97%
- laboratory germination (wheat seeds; 10 mmol): 96.5%
- sowing qualities of seeds compared with control (wheat seeds; 50 mmol): higher than in the case of controls
- germination energy (wheat seeds; 50 mmol): 95%
- laboratory germination (wheat seeds; 50 mmol): 96.5%
- effect on fungal microflora ([3]; 10 mmol): positive effect on the suppression of fungal microflora
- effect on fungal microflora ([3]; 50 mmol): positive effect on the suppression of fungal microflora
